Test results taken from patent EP2835640A1, “Method for predicting the skin sensitizing activity of a compound” (Academisch Ziekenhuis Leiden HODN Leids Universitair …, priority 2013, dated 2015).
Residues, ends and D or L forms follow the SMILES beside them. *: point of attachment. Cbz = O=C(OCc1ccccc1)*

Key:
[1] = tested on: Nrf2 dependent genes; assay: Quantitative PCR of gene expression, N/TERT monolayer cultures; assay type: cell-based, human; conditions: 4 h, mRNA
Description: (§1) Total RNA was prepared using RNeasy mini kit (Qiagen) according to the manufacturer's protocol. RNA was quantified using a Nanodrop ND-1000 spectrophotometer. First- strand cDNA synthesis was derived from 1 ug of total RNA using the iscript cDNA synthesis kit (Biorad) according to the manufacturer's protocol. Primers were tested in normal KC cDNA. Stability of reference genes was analyzed with the GeNorm method (Vandesompele et al., 2002). Expression analysis was performed with the BioRad software (iQ5) and was based on the delta delta Ct method with the reference genes that were most stably expressed according to the GeNorm analysis.
(§2) Expression levels of the following genes were measured: HMOX-1 (Hemeoxygenase-1), GCLM (Glutamate-cysteine ligase modifier subunit), TXNRD1 (Thioredoxin reductase 1), OSGIN-1 (oxidative stress induced growth inhibitor 1), B2M (Beta-2 microglobulin), GUSB (Glucuronidase beta) and TBP (TATA binding protein). Quantitative real-time PCR was determined by using the following primer sets: • 5'-[…]-'3 (HMOX-1), • 5'-[…]-'3 GCLM), • 5'-[…]-'3 (TXNRD1), • 5'- TGCTGCAGAGGAAGCTCAC-'3 (OSGIN1), • 5'-[…]-'3 (B2M), • 5'-[…]-'3 (GUSB), • 5'-[…]-'3 (TBP).
Real-Time PCRs were performed in 10 µl reaction volumes using the MylQ system and SYBR Green PCR Master- mix (Biorad) according to the manufacturer's protocol.
The PCR cycles were: 3 minutes at 95 °C to activate the polymerase, 40 cycles of 20 seconds at 95 °C and 40 seconds at 60 °C, followed by the generation of a melt curve.
All qPCR values were averaged relative to the three different reference genes: B2M, GUSB, TBP. For each data point, PCRs were performed in duplicate and values represent means ± standard deviation.

[2] = tested on: Nrf2 dependent genes; assay: Quantitative PCR of gene expression, NEMs; assay type: cell-based, human; conditions: 4 h, mRNA
Description: Medium was refreshed every 2 days.
as §1, §2
(§3) Real-Time PCRs were performed in 10 µl reaction volumes using the MylQ system and SYBR Green PCR Master- mix (Biorad) according to the manufacturer's protocol. […]

[3] = tested on: Monolayer keratinocytes; assay: WST-1 cell viability assay, monolayers; assay type: cell-based, human; conditions: WST-1, 24 h of treatment
Description: Cell viability of monolayers was measured using WST-1 assay (Roche diagnostics, Mannheim, Germany). Briefly, cells were seeded in 96-well flat-bottom plates (Greiner Bio-One, Frickenhausen, Germany) in 100 µl of culture medium 24-48 h prior to chemical treatment. After 24 h of treatment with an irritant or sensitizer, 10 µl of WST-1 reagent was added and plates were further incubated up to 3 h at 37°C. […] Monolayer keratinocytes were exposed to DNCB (10 µM) and SDS (80µM) at 80% cell viability concentrations.

[4] = tested on: NEMs; assay: MTT cell viability assay, epidermal model; conditions: topical exposure
Description: The LEMs and the NEMs were constructed by seeding 200.000 cells on insert filters (12 wells plate, polyester membrane, Costar) in Dermalife K medium including lifefactors (Lifeline Cell Technology, Walkersville, MD) until full density was reached. […] Thereafter they were cultured in CNT medium (basal medium plus supplement kit, CellnTec, Bern, Switzerland). […] Medium was refreshed every 2 days. LEMs and NEMs were air-exposed for 12 days at 37 °C and 7.3% CO2 prior to analysis.
Twelve days air-exposed LEMs or NEMs were covered with a 11 mm filter paper disc (Finn Chamber, Phoenix, USA). Chemicals with different doses were applied onto the filters and incubated for 24 h and thereafter washed away with PBS. LEMs or NEMs were then incubated with thiazolyl blue tetrazolium bromide (MTT), (Sigma). MTT stock of 5 mg/ml PBS (filter sterilized) was diluted to a final concentration of 1 mg/ml in colourless DMEM medium. MTT medium was added to the cell cultures and incubated for 3 h at 37°C. Viable cells were then allowed to reduce the tetrazolium dye to its insoluble formazan, which has a purple colour. Therefore, after 3 hours, the MTT was removed and washed away with PBS. After drying, the formazan was dissolved in 2ml of isopropanol overnight at room temperature. Absorbance was measured at 570 nm using a plate reader (TECAN infinite F200) in order to calculate the cell viability.

[5] = tested on: Nrf2 dependent genes; assay: Quantitative PCR of gene expression, monolayer primary keratinocytes; assay type: cell-based, human; conditions: 4 h, mRNA
Description: as §1, §2, §3

[6] = skin sensitizing potency; cited from earlier work
[7] = tested on: Nrf2; assay: Nuclear fractionation and Western blot, N/TERT monolayer cultures; assay type: cell-based, human
Source text: (§4) Nuclear fractions of monolayer cultures and reconstructed epidermis were isolate using a Nuclear extract kit (Active motif, Carlsbad, CA) according to the manufacturer's protocol. Nuclear fractions were subjected to Western blot analysis.
(§5) Monolayer cells were lysed in M-Per buffer (Thermo Scientific, Rockford, USA), reconstructed epidermis was cut in pieces and lysed in T-Per lysis buffer (Thermo Scientific, Rockford, USA) both supplemented with protease inhibitor cocktail EDTA-free and HALTTM phosphatase inhibitors (Thermo Scientific). Cell lysates were measured using the BCATM protein assay kit (Thermo Scientific). Equal amounts of proteins were separated by SDS-page. Proteins were transferred onto PVDF- transfer membranes (Thermo Scientific). […] After four times washing with PBST, proteins were detected by enhanced chemi-luminescence (Super signal West femto (Pierce Thermo Scientific, Rockford, USA) and visualized by exposure to X-ray film (Fujifilm Europe GmbH, Düsseldorf, Germany).
(§6) Next we investigated whether Nrf2 expression could be stabilized by inhibiting the proteasome that is responsible for a constitutive degradation of Nrf2. […] Although the Nrf2 translocation was clearly visible, we used a second approach enabling quantification of the amount of translocated Nrf2. […]

[8] = tested on: Nrf2; assay: Nuclear fractionation and Western blot, monolayer primary keratinocytes; assay type: cell-based, human
Source text: as §4, §5, §6

[9] = tested on: Nrf2; assay: Nrf2 nuclear translocation by immunohistochemical analysis, NEMs; assay type: cell-based, human; conditions: NEMs 12 days air-exposed, 4 h treatment

## O=[N+]([O-])c1ccc(Cl)c([N+](=O)[O-])c1 [DNCB, 2,4-dinitrochlorobenzene]
[1]
  Expression of GCLM: approx. 1,2 fold
  Expression of OSGIN-1: approx. 1,2 fold
  Expression of TXNRD-1: approx. 1,2 fold
[2]
  Expression of GLCM: approx. 3,2 fold
  Expression of OSGIN-1: approx. 2 fold
[3]
  80% cell viability concentrations: 10 µM
[4]
  concentrations of 80 - 85% CV: 500 µM
[5]
  Expression of GCLM: approx. 1,2 fold
  Expression of OSGIN-1: approx. 1,2 fold

## CC=Cc1ccc(O)c(OC)c1 [IsoEu, Isoeugenol]
[6]
  Potency category: moderate
[4]
  concentrations of 80 - 85% CV: 15000 µM

## CC(C)C[C@@H](C=O)NC(=O)[C@H](CC(C)C)NC(=O)[C@H](CC(C)C)NC(=O)OCc1ccccc1 [MG132] (Cbz-Leu-Leu-Leu-aldehyde)
[7]
  Nrf2 protein levels in nuclear lysates: elevated levels of Nrf2
[8]
  Nrf2 protein levels in nuclear lysates: elevated levels of Nrf2

## Nc1ccc(N)cc1 [PPD, p-Phenylenediamine]
[4]
  concentrations of 80 - 85% CV: 35000 µM

## CCCCCCCCCCCCOS(=O)(=O)[O-].[Na+] [SDS, Sodium Dodecyl Sulfate]
[9]
  Nrf2 in the nuclei: Nrf2 was only translocated to the nucleus after DNCB treatment
[3]
  80% cell viability concentrations: 80 µM
